The values below come from patent US11492359B2, “Near-infrared nerve-sparing fluorophores” (OREGON HEALTH & SCIENCE UNIVERSITY, priority 2018, dated 2022).

The test system of one data set is swine peripheral nerves. The data set can be described thus: Swine nerve imaging on da Vinci Si surgical system. The class given is in vivo. Conditions: for nerve contrast against key surgical tissue classes (adipose, muscle, vasculature, peritoneal): laparoscopic; for SBR of buried nerve tissues: underlying peritoneal tissue and several millimeters of mixed adipose and muscle tissues, semi-quantitative. The text has this: A custom-built laparoscopic imaging system also capable of real-time color and fluorescence imaging was used to acquire in vivo swine images and videos. The imaging system was integrated into the da Vinci Si surgical system (Intuitive Surgical, Sunnyvale, Calif.) and consisted of a Necsel Neon 5 W 640 nm laser (Necsel, Milpitas, Calif.) coupled to the da Vinci Si endoscope with a 642 nm StopLine single-notch blocking filter (Semrock, Rochester, N.Y.). The single-notch blocking filter was placed in the Si camera sterile adaptor between the rod lens endoscope and the Si camera head. Fluorescent signal acquisition occurred in the Si white light mode with the blocking filter removing the excitation light and the fluorescent signal detected primarily on the red, green, blue (RGB) red-Bayer elements of a modified Si endoscope camera head. Laser power at the endoscope tip measured 800 mW with the optical power loses occurring primarily at the laser fiber/light guide and the Si camera head/rod lens interfaces. Fluorescence and color videos were captured using the Si Vision side cart at an exposure time of 2 ms. Videos were recorded on a Panasonic HD-SDI recorder connected to the TilePro video out connections on the da Vinci Si Vision side cart. Video clips were edited in iMovie to crop their length and include text overlays. Screen captures of the in vivo video clips were collected and are presented as figures. Da Vinci Si imaging display algorithms apply non-linear gamma and color corrections to the collected video, and thus, while image quantification is possible to report what would be visible to surgeons intraoperatively, these values are only semi-quantitative and could vary from what is observed in a more controlled system.
Swine nerve imaging studies of Oxazine derivatives. LGW01-08 and LGW05-75 were administered via IV injection at a body surface area scaled dose from mice for swine nerve imaging studies (0.34 mg/kg) (Nair & Jacob, J Basic Clin Pharm 7, 27-31 (2016) and Sharma & McNeill, Br J Pharmacol 157, 907-921 (2009)). Nerves running along the body wall in the peritoneal cavity buried beneath 1-3 mm of fascia and adipose tissue were imaged using the previously described fluorescence enabled laparoscopic imaging system docked to the da Vinci Si Surgical System. Nerve contrast was monitored immediately following injection and up to 6 hours after systemic administration. Dissection and resection of the identified nerve structures was performed using the da Vinci system, where the resected tissues were fixed in formalin. The fixed tissues were sent to the OHSU Histopathology Shared Resource for paraffin embedding, sectioning and subsequent gold standard H&E staining.
Image analysis of intraoperative nerve contrast. Custom written MatLab code was used to analyze the tissue specific fluorescence where regions of interest (ROIs) were selected on the nerve, muscle and adipose tissue using the white light images, but blinded to the fluorescence images. These ROIs were then analyzed on the co-registered, matched fluorescence images permitting assessment of the mean tissue intensities as well as the nerve to muscle (N/M) and nerve to adipose (N/A) ratios. Fluorescence intensity measurements were divided by the exposure time to obtain normalized intensity per second measurements. Mean nerve to background tissue ratios (N/M and N/A) were calculated for each Oxazine derivative. For nerve imaging at depth image analysis, fluorescent line profiles and 3-D intensity topographical plots were generated in ImageJ using the plot profile and surface plot functions, respectively. The line profiles were background and exposure time corrected by dividing by the exposure time of each image and subtracting the average intensity of background pixels from the entire line profile. […] In addition, non-uniform tissue surfaces, variable endoscope-tissue positioning, and vignetting add further complications to resolving tissue-level SBRs.

Data set [1] relates to mouse brachial plexus nerves. The data set is described as follows: Nerve imaging at depth under muscle tissue. In kind it is in vivo. As to the method:
Nerve imaging at depth studies using a model Oxazine derivative. Oxazine 4 and LGW01-08 were used to stain mouse brachial plexus nerves using both direct and systemic administration methods using the same dose and administration methods previously described. The ability to image the brachial plexus nerve at depth was assessed under varying thicknesses of mouse muscle tissue. Muscle tissue was resected from the peritoneal muscle layer and measured for thickness. One and two layers of resected peritoneal muscle tissue was placed over the stained nerves, providing one and two mm thick homogenous tissue through which the stained nerve tissue was imaged. The same muscle tissue was used to cover the stained nerves from both fluorophores with care taken to orient the muscle in the same way to ensure equivalent comparison. The imaging system configuration was changed to reflect the 700 nm channel in clinically relevant FGS systems (Tummers et al., Eur J Surg Oncol 40, 850-858 (2014); Troyan et al., Ann Surg Oncol 16, 2943-2952 (2009); Ashitate et al., The Journal of surgical research 176, 7-13 (2012); Verbeek et al., The Journal of urology 190, 574-579 (2013); Hillary et al., Langenbecks Arch Surg 403, 111-118 (2018); and Mery et al., Oncotarget 8, 109559-109574 (2017). For fluorescence excitation, the PhotoFluor II was filtered with a 650±22.5 nm bandpass excitation filter. The resulting fluorescence was collected with a 720±30 nm bandpass emission filter for image collection. Camera exposure times ranged from 0.025-4 s for fluorescence image collection.
Image analysis of intraoperative nerve contrast. Custom written MatLab code was used to analyze the tissue specific fluorescence where regions of interest (ROIs) were selected on the nerve, muscle and adipose tissue using the white light images, but blinded to the fluorescence images. These ROIs were then analyzed on the co-registered, matched fluorescence images permitting assessment of the mean tissue intensities as well as the nerve to muscle (N/M) and nerve to adipose (N/A) ratios. Fluorescence intensity measurements were divided by the exposure time to obtain normalized intensity per second measurements. Mean nerve to background tissue ratios (N/M and N/A) were calculated for each Oxazine derivative. For nerve imaging at depth image analysis, fluorescent line profiles and 3-D intensity topographical plots were generated in ImageJ using the plot profile and surface plot functions, respectively. The line profiles were background and exposure time corrected by dividing by the exposure time of each image and subtracting the average intensity of background pixels from the entire line profile. […]

In data set [2] the test system is murine brachial plexus and sciatic nerves. The data set can be described thus: Nerve-specificity screening using systemic administration. In kind it is in vivo. Conditions: for nerve specificity / nerve contrast (N/M vs control group) following systemic administration: IV, 200 nmol, 4 hours prior to imaging; for N/M and N/A ratios vs unstained control animals: systemic administration.

The nature of data set [3]: UV-Vis absorption and fluorescence spectroscopy of the Oxazine library. In kind it is physicochemical. To be noted: for Extinction coefficient: Beer's Law plots; for Quantum yield: relative, references Oxazine 1, Oxazine 170, Rhodamine 101. The gist of the method: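 Absorbance measured at room temperature in 1-cm quartz cuvette, reference corrected; extinction coefficient from Beer's Law plots of absorbance vs concentration. Fluorescence spectra corrected for PMT response; relative quantum yields averaged over multiple measurements against Oxazine 1, Oxazine 170 and Rhodamine 101 references.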

The test system of data set [4] is murine brachial plexus and sciatic nerves. The data set is described as follows: Nerve-specificity screening using direct/topical administration. The class given is in vivo, mouse. Conditions: for nerve specificity (N/M contrast vs control group) via direct administration: 125 μM, imaged 30 minutes after staining; for N/M and N/A ratios vs unstained control animals: direct administration. On the procedure:
All reagents were purchased from Sigma Aldrich, Fisher Scientific, TCI, or Ark Pharm. Unless otherwise indicated, all commercially available starting materials were used directly without further purification. Analytical thin layer chromatography (TLC) was performed on Millipore ready-to-use plates with silica gel 60 (F254, 32-63 μm). Flash chromatography was performed on Sorbent Technologies silica gel for column chromatography or on a Biotage Isolera Flash System using SNAP Ultra cartridges. High-resolution mass spectra (HRMS) were measured on a ThermoElectron LTQ-Orbitrap high resolution mass spectrometer with a dedicated Accela HPLC system, or an Agilent 6244 time-of-flight LCMS with diode array detector VL+. LCMS and Purity Characterization Mass-to-charge ratio and purity of the Oxazine compounds were characterized on an Agilent 6244 time-of-flight tandem liquid chromatography mass spectroscopy (LCMS) with diode array detector VL+. Sample (10 μL) was injected into a C18 column (Poroshell 120, 4.6×50 mm, 2.7 micron), and eluted with a solvent system of A (H2O, 0.1% FA) and B (MeCN, 01.% FA) at 0.4 mL/min, from A/B=90/10 to 5/95 over 10 min, maintained at A/B=5/95 for additional 5 min. Ions were detected in positive ion mode by setting the capillary voltage at 4 kV and gas temperature at 350° C. Purity was calculated through area under the curve analysis of the absorbance at 254 nm. UV-Vis Absorption and Fluorescence Spectroscopy. UV-Vis spectra were collected with a Cary 50 UV-Vis spectrophotometer at room temperature, using a 1-cm quartz cuvette. Fluorescence spectra were collected on a Cary Eclipse fluorescence spectrophotometer (Agilent Technologies). All absorbance spectra were reference corrected. Extinction coefficient was calculated from Beer's Law plots of absorbance versus concentration. Fluorescence spectra were corrected for the wavelength dependent response of the R928 photomultiplier tube using a manufacturer generated correction file. Relative quantum yields are reported as the average of multiple measurements using multiple references, including Oxazine 1, Oxazine 170, and Rhodamine 101. Physicochemical Property Calculation. Physicochemical partition coefficients (Log D) values at pH 7.4, number of hydrogen bond donors and acceptors, polar surface area, and the number of rotatable bonds were calculated using Marvin and JChem calculator plugins (ChemAxon, Budapest, Hungary). Nerve-Specificity Screening using Direct/Topical Administration Each compound was screened for its tissue-specificity using a previously published direct/topical administration strategy in murine brachial plexus and sciatic nerves.^1 Each compound from the Oxazine library was formulated in the previously utilized co-solvent formulation (10% DMSO, 5% Kolliphor, 65% serum and 20% phosphate buffered saline) at 125 μM. 100 μL of the formulated Oxazine were incubated on the exposed brachial plexus or sciatic nerve for 5 minutes. The fluorophore containing solution was removed and the area was irrigated with saline 18 times to remove any unbound fluorophore. Co-registered fluorescence and color images were collected of each stained area 30 minutes after Oxazine direct/topical administration using a custom built macroscopic imaging system with 620/60 nm excitation and 700/75 nm bandpass emission filters. Custom written MatLab code was used to analyze the tissue specific fluorescence where regions of interest were selected on the nerve, muscle and adipose tissue using the white light images. These regions of interest were then analyzed on the co-registered matched fluorescence images permitting assessment of the nerve to muscle and nerve to adipose ratios in blinded manner. […]

In another data set the test system is nerve and muscle tissue. The data set can be described thus: Ex vivo tissue staining nerve-specificity screening. From the text:
Oxazine derivative library nerve-specificity screening. All 64 Oxazine derivatives were screened for nerve specificity using a previously described ex vivo tissue staining assay (Gibbs, S. L., et al., PloS one 8, e73493 (2013)). Ex vivo nerve and muscle tissue fluorescence intensities varied, with many compounds showing minimal nerve or muscle tissue fluorescence above control autofluorescence following Oxazine derivative staining. […] All Oxazine derivatives were further screened for nerve-specificity in vivo using both direct and systemic administration strategies. The direct administration strategy enabled quantification of nerve-specificity and contrast following fluorophore contact with the nerves and surrounding tissues without the requirement of BNB penetration, providing the most similar comparison to ex vivo nerve-specificity screening. The systemic administration screening studies required not only nerve specificity, but also adequate biodistribution and BNB penetration to generate SBR for visualization.

For `CCNc1cc2oc3cc(=[N+](CC)CC)ccc-3nc2cc1C` [LGW01-08, N-ethyl-N-(7-(ethylamino)-8-methyl-3H-phenoxazin-3-ylidene)ethanaminium], the “time post-injection at which signal approached background levels” value with swine peripheral nerves (swine, IV 0.34 mg/kg) is roughly 4 h. Moreover, in the data set on swine peripheral nerves (swine), the “nerve contrast against key surgical tissue classes (adipose, muscle, vasculature, peritoneal)” value is reported as “positive nerve contrast” and the “SBR of buried nerve tissues” value is reported as roughly 1.5. In the data set on swine peripheral nerves (systemic administration), the “faster time to positive N/A and N/M fluorescence compared to current visible-emissive agents” value was 2-6 fold; the “time post-injection to nerve signal / strong nerve contrast” value stood at 20 min. The “width of smallest nerve branches distinguished under muscle tissue” value in data set [1] (direct administration, under 1 mm of muscle tissue) was roughly 200 μm. Besides, the “thickness of muscle tissue under which nerve tissue could be identified” value in data set [1] (following both systemic and direct administration, 700 nm channel filters) is on record as “up to 2 mm”. In addition, in data set [2], the “nerve specificity / nerve contrast (N/M vs control group) following systemic administration” value was “high nerve specificity”; the “N/M and N/A ratios vs unstained control animals” value (shortened to “N/M and N/A ratios”) was “significantly higher N/M and N/A ratios than unstained control animals”. Besides, in data set [3], the “Max Abs” value amounted to 638 nm, the “Max Em” value amounted to 659 nm, the “Max Ex” value was determined as 640 nm and the Extinction coefficient was found to be 78650 M⁻¹ cm⁻¹. Further, the Quantum yield in data set [3] is given as 5.68%. In data set [4], the “nerve specificity (N/M contrast vs control group) via direct administration” value is “high nerve specificity”; the “N/M and N/A ratios” value was “significantly higher N/M and N/A ratios than unstained control animals”.
`CN(C)c1ccc2nc3ccc(=[N+](C)C)cc-3oc2c1` [LGW01-39, N-(7-(dimethylamino)-3H-phenoxazin-3-ylidene)-N-methylmethanaminium]: the “ex vivo nerve specificity (N/M SBR vs unstained control group)” value in the data set on nerve and muscle tissue was “significantly higher N/M SBR compared to the unstained control group”. In addition, in data set [3], the “Max Abs” value amounted to 648 nm, the “Max Em” value was 667 nm, the “Max Ex” value is reported as 650 nm and the Extinction coefficient came out at 76144 M⁻¹ cm⁻¹. For the same compound, in data set [3], the Quantum yield was 9.56%.
`CC/N=c1/cc2oc3cc4c(cc3nc-2cc1C)OCCN4CC` [LGW05-75, (Z)—N-(4-ethyl-9-methyl-3,4-dihydro-[1,4]oxazino[2,3-b]phenoxazin-8(2H)-ylidene)ethanaminium]: in the data set on swine peripheral nerves (swine, IV 0.34 mg/kg), the “time after administration with strong nerve SBR” value is greater than 4.5 h and the “time required for sufficient background tissue clearance” value is roughly 1.5 h. In addition, in the data set with swine peripheral nerves (swine), the “nerve contrast against key surgical tissue classes (adipose, muscle, vasculature, peritoneal)” value was “positive nerve contrast” and the “SBR of buried nerve tissues” value is given as roughly 1.5. Also, in data set [2], the “nerve specificity / nerve contrast (N/M vs control group) following systemic administration” value is given as “high nerve specificity”; the “N/M and N/A ratios” value is “significantly higher N/M and N/A ratios than unstained control animals”. In addition, in data set [3], the “Max Abs” value turned out to be 638 nm, the “Max Em” value was 659 nm, the “Max Ex” value is on record as 640 nm and the Extinction coefficient was determined as 57360 M⁻¹ cm⁻¹. The compound further had a Quantum yield in data set [3] of 31.70%. Further, in data set [4], the “nerve specificity (N/M contrast vs control group) via direct administration” value was “high nerve specificity”; the “N/M and N/A ratios” value is “significantly higher N/M and N/A ratios than unstained control animals”.
